In the OligoGym collection:
HELM strings list units from the 5' end as sugar, base in round brackets, then linkage (d deoxyribose, r ribose, m 2'-O-methyl, p phosphodiester). [sp] = phosphorothioate linkage

Assays:
CDKN2B-AS1 [1] = test: HEK293-TLR7, 100 nM ASO, then resiquimod
CDKN2B-AS1 [2] = test: HEK293-TLR8, 100 nM ASO, then resiquimod

Substance	TLR7 signal (NF-kB luciferase) (% of resiquimod alone) (CDKN2B-AS1 [1])	TLR8 potentiation (NF-kB luciferase) (fold of resiquimod alone) (CDKN2B-AS1 [2])
RNA1{m(A)[sp].m(A)[sp].m(A)[sp].m(A)[sp].m(G)[sp].d(A)[sp].d(T)[sp].d(T)[sp].d(A)[sp].d(T)[sp].d(C)[sp].d(T)[sp].d(T)[sp].d(C)[sp].d(T)[sp].m(U)[sp].m(U)[sp].m(U)[sp].m(A)[sp].m(A)}$$$$	47.4	3.19
RNA1{m(A)[sp].m(G)[sp].m(U)[sp].m(C)[sp].m(U)[sp].d(C)[sp].d(C)[sp].d(A)[sp].d(T)[sp].d(G)[sp].d(T)[sp].d(C)[sp].d(C)[sp].d(C)[sp].d(A)[sp].m(G)[sp].m(G)[sp].m(C)[sp].m(C)[sp].m(U)}$$$$	35.8	1.64
RNA1{m(C)[sp].m(U)[sp].m(U)[sp].m(G)[sp].m(U)[sp].d(G)[sp].d(A)[sp].d(A)[sp].d(A)[sp].d(A)[sp].d(G)[sp].d(A)[sp].d(T)[sp].d(T)[sp].d(A)[sp].m(U)[sp].m(C)[sp].m(U)[sp].m(U)[sp].m(C)}$$$$	85.3	3.89
RNA1{m(A)[sp].m(U)[sp].m(U)[sp].m(U)[sp].m(C)[sp].d(C)[sp].d(A)[sp].d(C)[sp].d(A)[sp].d(T)[sp].d(G)[sp].d(C)[sp].d(C)[sp].d(C)[sp].d(A)[sp].m(G)[sp].m(U)[sp].m(G)[sp].m(U)[sp].m(U)}$$$$	32	2.06
RNA1{m(A)[sp].m(A)[sp].m(A)[sp].m(G)[sp].m(A)[sp].d(T)[sp].d(T)[sp].d(A)[sp].d(T)[sp].d(C)[sp].d(T)[sp].d(T)[sp].d(C)[sp].d(T)[sp].d(T)[sp].m(U)[sp].m(U)[sp].m(A)[sp].m(A)[sp].m(U)}$$$$	49.3	2.96
RNA1{m(G)[sp].m(A)[sp].m(G)[sp].m(U)[sp].m(U)[sp].d(C)[sp].d(T)[sp].d(T)[sp].d(C)[sp].d(G)[sp].d(T)[sp].d(A)[sp].d(G)[sp].d(G)[sp].d(C)[sp].m(U)[sp].m(U)[sp].m(C)[sp].m(U)[sp].m(G)}$$$$	25.9	0.96
RNA1{m(A)[sp].m(G)[sp].m(G)[sp].m(C)[sp].m(C)[sp].d(T)[sp].d(C)[sp].d(C)[sp].d(A)[sp].d(G)[sp].d(T)[sp].d(G)[sp].d(T)[sp].d(C)[sp].d(T)[sp].m(U)[sp].m(C)[sp].m(U)[sp].m(C)[sp].m(C)}$$$$	44.7	2.19
RNA1{m(G)[sp].m(G)[sp].m(A)[sp].m(G)[sp].m(A)[sp].d(T)[sp].d(C)[sp].d(A)[sp].d(G)[sp].d(A)[sp].d(T)[sp].d(G)[sp].d(A)[sp].d(G)[sp].d(A)[sp].m(G)[sp].m(G)[sp].m(A)[sp].m(G)[sp].m(C)}$$$$	26.3	1.05
RNA1{m(A)[sp].m(A)[sp].m(G)[sp].m(G)[sp].m(U)[sp].d(G)[sp].d(G)[sp].d(C)[sp].d(C)[sp].d(A)[sp].d(C)[sp].d(A)[sp].d(G)[sp].d(G)[sp].d(C)[sp].m(A)[sp].m(A)[sp].m(C)[sp].m(G)[sp].m(U)}$$$$	57.9	0.58
RNA1{m(C)[sp].m(C)[sp].m(U)[sp].m(A)[sp].m(G)[sp].d(A)[sp].d(A)[sp].d(A)[sp].d(G)[sp].d(A)[sp].d(A)[sp].d(G)[sp].d(C)[sp].d(A)[sp].d(A)[sp].m(A)[sp].m(G)[sp].m(A)[sp].m(U)[sp].m(U)}$$$$	57.2	3.58
RNA1{m(U)[sp].m(A)[sp].m(U)[sp].m(U)[sp].m(U)[sp].d(C)[sp].d(C)[sp].d(A)[sp].d(C)[sp].d(A)[sp].d(T)[sp].d(G)[sp].d(C)[sp].d(C)[sp].d(C)[sp].m(A)[sp].m(G)[sp].m(U)[sp].m(G)[sp].m(U)}$$$$	30.5	2.77
RNA1{m(A)[sp].m(G)[sp].m(A)[sp].m(A)[sp].m(A)[sp].d(G)[sp].d(A)[sp].d(A)[sp].d(G)[sp].d(C)[sp].d(A)[sp].d(A)[sp].d(A)[sp].d(G)[sp].d(A)[sp].m(U)[sp].m(U)[sp].m(C)[sp].m(A)[sp].m(A)}$$$$	43	1.96
RNA1{m(U)[sp].m(U)[sp].m(G)[sp].m(U)[sp].m(G)[sp].d(A)[sp].d(A)[sp].d(A)[sp].d(A)[sp].d(G)[sp].d(A)[sp].d(T)[sp].d(T)[sp].d(A)[sp].d(T)[sp].m(C)[sp].m(U)[sp].m(U)[sp].m(C)[sp].m(U)}$$$$	35	1.05
